Assay results: article PMC6001238, “Iterative Chemical Engineering of Vancomycin Leads to Novel Vancomycin Analogs With a High in Vitro Therapeutic Index” (Frontiers in Microbiology, 2018)
≈ marks a conversion by molar mass, not a printed value. Where two headings read alike, the source gives them in different places.

Tests used:
S. aureus VRSA = test: MIC, broth microdilution, vancomycin-resistant S. aureus (VRSA); format: cell-based, Staphylococcus aureus; conditions: for MIC: Staphylococcus aureus VRSA, read-out: MIC; for MIC-fold improvement vs. vancomycin: VRSA, ratio of MIC of vancomycin and MIC of analogue
In short: (§1)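 Following CLSI antimicrobial susceptibility standards, organisms were tested by broth microdilution. Controls comprised ultrapure water plus broth left uninoculated. For a single condition, 10 μM vancomycin (final) accompanied the analog or control agent.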

MRSA KS89 = test: MIC, broth microdilution, MRSA KS89; format: cell-based, Staphylococcus aureus; conditions: for MIC-fold improvement vs. vancomycin: MRSA KS8, ratio of MIC of vancomycin and MIC of analogue; for MIC: Staphylococcus aureus MRSA KS8, read-out: MIC
In short: as §1

[1] = system: S. aureus VSSA (ATCC 6538); test: MIC, broth microdilution, vancomycin-sensitive S. aureus (VSSA/MSSA, ATCC 6538); format: cell-based, Staphylococcus aureus; conditions: for MIC: Staphylococcus aureus VSSA, read-out: MIC; for MIC-fold improvement vs. vancomycin: VSSA, ratio of MIC of vancomycin and MIC of analogue
In short: as §1

[2] = system: L1210, CEM and HeLa cell lines; test: Cytostatic activity, average or summary over L1210, CEM and HeLa; format: cell-based
In short: (§2)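 Suspensions (300,000–500,000 cells/mL) combined with equal volumes of diluted compound; 37°C; L1210 2 d / CEM 3 d / HeLa 4 d; counted by Coulter counter; IC50 vs untreated wells.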

[3] = system: Clostridium difficile AIU ribotype 027; test: MIC, plate drop assay, C. difficile AIU ribotype 027; format: cell-based; conditions: C. difficile AIU ribotype 027
In short: (§3)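 Twofold dilution series of test compounds were spotted onto C. difficile lawns in 0.4% BHI agar containing added calcium and magnesium salts. After overnight anaerobic incubation at 37°C, growth inhibition was scored by spot clearing; triplicate runs, ultrapure water negative control.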

E. faecalis VRE 53 = test: MIC, broth microdilution, vancomycin-resistant E. faecalis VRE 53 (VanA); format: cell-based, Enterococcus faecalis; conditions: for MICvanc/MICi / MIC-fold improvement vs. vancomycin: ratio of MIC of vancomycin and MIC of analogue; for MIC: read-out: MIC; for MIC-fold improvement vs. vancomycin: VRE 53
In short: as §1

B. subtilis PSB3 = test: MIC, broth microdilution, B. subtilis PSB3; format: cell-based, Bacillus subtilis; conditions: for MICvanc/MICi: ratio of MIC of vancomycin and MIC of analogue
In short: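 Assayed by broth microdilution under CLSI antimicrobial testing rules. One case paired the analog or control drug with vancomycin at a 10 μM final concentration; water and inoculum-free broth were controls.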

[4] = system: human cervix carcinoma (HeLa) cells; test: Cytostatic activity, HeLa cell proliferation; format: cell-based; conditions: mean ± SD of three experiments; highest concentration tested 250 µM; 4 days; read-out: Toxicity (IC50) HeLa
In short: as §2

[5] = system: human T-lymphocyte (CEM) cells; test: Cytostatic activity, CEM cell proliferation; format: cell-based; conditions: mean ± SD of three experiments; highest concentration tested 250 µM; 3 days; read-out: Toxicity (IC50) CEM
In short: as §2

E. faecalis VRE 37 = test: MIC, broth microdilution, vancomycin-resistant E. faecalis VRE 37 (VanA); format: cell-based, Enterococcus faecalis; conditions: Enterococcus faecalis VRE 37 (vancomycin-resistant); read-out: MIC
In short: as §1

E. faecalis VRE 29 = test: MIC, broth microdilution, vancomycin-resistant E. faecalis VRE 29 (VanA); format: cell-based, Enterococcus faecalis; conditions: for MIC: Enterococcus faecalis VRE 29 (vancomycin-resistant), read-out: MIC; for MIC-fold improvement vs. vancomycin: VRE 29, ratio of MIC of vancomycin and MIC of analogue
In short: as §1

E. coli XL-1 blue MRF' = test: MIC, broth microdilution, E. coli XL-1 blue MRF'; format: cell-based, Escherichia coli; conditions: E. coli XL-1 blue MRF'; for MICvanc/MICi: ratio of MIC of vancomycin and MIC of analogue
In short: as §1

MRSA KS1 = test: MIC, broth microdilution, MRSA KS1; format: cell-based, Staphylococcus aureus; conditions: for MIC-fold improvement vs. vancomycin: MRSA KS1, ratio of MIC of vancomycin and MIC of analogue; for MIC: Staphylococcus aureus MRSA KS1, read-out: MIC
In short: as §1

[6] = system: Clostridium difficile ATJ ribotype 014/20; test: MIC, plate drop assay, C. difficile ATJ ribotype 014/20; format: cell-based; conditions: C. difficile ATJ ribotype 014/20
In short: as §3

E. faecalis VSE 1 = test: MIC, broth microdilution, vancomycin-sensitive E. faecalis (VSE 1); format: cell-based, Enterococcus faecalis; conditions: for MICvanc/MICi / MIC-fold improvement vs. vancomycin: ratio of MIC of vancomycin and MIC of analogue; for MIC: read-out: MIC; for MIC-fold improvement vs. vancomycin: VSE 1
In short: as §1

[7] = system: Murine leukemia (L1210) cells; test: Cytostatic activity, L1210 cell proliferation; format: cell-based; conditions: mean ± SD of three experiments; highest concentration tested 250 µM; 2 days; read-out: Toxicity (IC50) L1210
In short: as §2

MRSA KS2 = test: MIC, broth microdilution, MRSA KS2; format: cell-based, Staphylococcus aureus; conditions: for MIC-fold improvement vs. vancomycin: MRSA KS2, ratio of MIC of vancomycin and MIC of analogue; for MIC: Staphylococcus aureus MRSA KS2, read-out: MIC
In short: as §1

E. faecalis VRE 6 = test: MIC, broth microdilution, vancomycin-resistant E. faecalis VRE 6 (VanA); format: cell-based, Enterococcus faecalis; conditions: for MICvanc/MICi / MIC-fold improvement vs. vancomycin: ratio of MIC of vancomycin and MIC of analogue; for MIC: read-out: MIC; for MIC-fold improvement vs. vancomycin: VRE 6
In short: as §1

MRSA KS6 = test: MIC, broth microdilution, MRSA KS6; format: cell-based, Staphylococcus aureus; conditions: for MIC-fold improvement vs. vancomycin: MRSA KS6, ratio of MIC of vancomycin and MIC of analogue; for MIC: Staphylococcus aureus MRSA KS6, read-out: MIC
In short: as §1

S. aureus VISA/HIP5827 = test: MIC, broth microdilution, vancomycin-intermediate S. aureus VISA HIP5827; format: cell-based, Staphylococcus aureus; conditions: for MIC: Staphylococcus aureus VISA/HIP5827, read-out: MIC; for MIC-fold improvement vs. vancomycin: VISA/HIP5827, ratio of MIC of vancomycin and MIC of analogue
In short: as §1

[8] = average of L1210, CEM and HeLa, read-out: Toxicity (IC50) Average
[9] = Enterococcus faecalis VRE 53 (vancomycin-resistant)
[10] = Enterococcus faecalis VSE 1 (vancomycin-sensitive)
[11] = Enterococcus faecalis VRE 6 (vancomycin-resistant)

SMILES	MIC (S. aureus VRSA) [µM]	MIC-fold improvement vs. vancomycin (S. aureus VRSA)	MIC-fold improvement vs. vancomycin (MRSA KS89)	MIC (MRSA KS89) [µM]	MIC [1] [µM]	MIC-fold improvement vs. vancomycin [1]	IC50 [2, 8] [µM]	MICvanc/MICi (E. faecalis VRE 53; E. faecalis VRE 53)	MIC (E. faecalis VRE 53; E. faecalis VRE 53) [µM]	MIC (E. faecalis VRE 53; [9]) [µM]	MIC-fold improvement vs. vancomycin (E. faecalis VRE 53)	MIC (B. subtilis PSB3) [µM]	MICvanc/MICi (B. subtilis PSB3)	IC50 [4] [µM]	IC50 [5] [µM]	MIC (E. faecalis VRE 37) [µM]	MIC (E. faecalis VRE 29) [µM]	MIC-fold improvement vs. vancomycin (E. faecalis VRE 29)	MIC (E. coli XL-1 blue MRF') [µM]	MICvanc/MICi (E. coli XL-1 blue MRF')	also measured
C#Cc1ccc(NC(=O)CNC(=O)C2NC(=O)C3NC(=O)C(NC(=O)C4NC(=O)C(CC(N)=O)NC(=O)C(NC(=O)C(CC(C)C)NC)C(O)c5ccc(c(Cl)c5)Oc5cc4cc(c5OC4OC(CO)C(O)C(O)C4OC4CC(C)(N)C(O)C(C)O4)Oc4ccc(cc4Cl)C3O)c3ccc(O)c(c3)-c3c(O)cc(O)cc32)cc1 (centres unmarked) [Vanc-N]	1.56 (≈ 2.5 µg/mL)	64	2	0.39 (≈ 0.626 µg/mL)	0.10 (≈ 0.161 µg/mL)	8	> 250	64	6.25 (≈ 10 µg/mL)	6.25 (≈ 10 µg/mL)	64	0.20 (≈ 0.321 µg/mL)	2	> 250	> 250	25 (≈ 40.1 µg/mL)	6.25 (≈ 10 µg/mL)	64	50 (≈ 80.3 µg/mL)	2	IC50 ([2]; summary over the three cell lines, read-out: IC50 (L1210, CEM, HeLa), depending on the cell line used): > 250 µM; MIC-fold improvement vs. vancomycin [3]: 29; MIC-fold improvement vs. vancomycin (MRSA KS1): 4; MIC (MRSA KS1): 0.20 µM (≈ 0.321 µg/mL); MIC-fold improvement vs. vancomycin [6]: 5.6; MICvanc/MICi (E. faecalis VSE 1; E. faecalis VSE 1): 16; MIC (E. faecalis VSE 1; E. faecalis VSE 1): 0.10 µM (≈ 0.161 µg/mL); MIC (E. faecalis VSE 1; [10]): 0.10 µM (≈ 0.161 µg/mL); MIC-fold improvement vs. vancomycin (E. faecalis VSE 1): 16; IC50 [7]: > 250 µM; MIC-fold improvement vs. vancomycin (MRSA KS2): 2; MIC (MRSA KS2): 0.39 µM (≈ 0.626 µg/mL); MICvanc/MICi (E. faecalis VRE 6; E. faecalis VRE 6): 64; MIC (E. faecalis VRE 6; E. faecalis VRE 6): 3.13 µM (≈ 5.03 µg/mL); MIC (E. faecalis VRE 6; [11]): 3.13 µM (≈ 5.03 µg/mL); MIC-fold improvement vs. vancomycin (E. faecalis VRE 6): 64; MIC-fold improvement vs. vancomycin (MRSA KS6): 2; MIC (MRSA KS6): 0.39 µM (≈ 0.626 µg/mL); MIC (S. aureus VISA/HIP5827): 0.78 µM (≈ 1.25 µg/mL); MIC-fold improvement vs. vancomycin (S. aureus VISA/HIP5827): 8
C#Cc1ccc2cc(C(=O)NCCCNC(=O)[C@H]3NC(=O)[C@H]4NC(=O)[C@H](NC(=O)[C@@H]5NC(=O)[C@H](CC(N)=O)NC(=O)[C@H](NC(=O)[C@@H](CC(C)C)NC)[C@H](O)c6ccc(c(Cl)c6)Oc6cc5cc(c6O[C@@H]5O[C@H](CO)[C@@H](O)[C@H](O)[C@H]5O[C@H]5C[C@](C)(N)[C@H](O)[C@H](C)O5)Oc5ccc(cc5Cl)[C@H]4O)c4ccc(O)c(c4)-c4c(O)cc(O)cc43)ccc2c1 [Vanc-T]	1.56 (≈ 2.63 µg/mL)	64	4	0.20 (≈ 0.337 µg/mL)	0.10 (≈ 0.168 µg/mL)	8	71	128	3.13 (≈ 5.27 µg/mL)	3.13 (≈ 5.27 µg/mL)	128	0.39 (≈ 0.657 µg/mL)	1	75 ± 20	60 ± 10	25 (≈ 42.1 µg/mL)	12.5 (≈ 21 µg/mL)	32	25 (≈ 42.1 µg/mL)	4	MIC-fold improvement vs. vancomycin (MRSA KS1): 4; MIC (MRSA KS1): 0.20 µM (≈ 0.337 µg/mL); MICvanc/MICi (E. faecalis VSE 1; E. faecalis VSE 1): 32; MIC (E. faecalis VSE 1; E. faecalis VSE 1): 0.05 µM (≈ 0.0842 µg/mL); MIC (E. faecalis VSE 1; [10]): 0.05 µM (≈ 0.0842 µg/mL); MIC-fold improvement vs. vancomycin (E. faecalis VSE 1): 32; IC50 [7]: 77 ± 17 µM; MIC-fold improvement vs. vancomycin (MRSA KS2): 4; MIC (MRSA KS2): 0.20 µM (≈ 0.337 µg/mL); MICvanc/MICi (E. faecalis VRE 6; E. faecalis VRE 6): 64; MIC (E. faecalis VRE 6; E. faecalis VRE 6): 3.13 µM (≈ 5.27 µg/mL); MIC (E. faecalis VRE 6; [11]): 3.13 µM (≈ 5.27 µg/mL); MIC-fold improvement vs. vancomycin (E. faecalis VRE 6): 64; MIC-fold improvement vs. vancomycin (MRSA KS6): 2; MIC (MRSA KS6): 0.39 µM (≈ 0.657 µg/mL); MIC (S. aureus VISA/HIP5827): 1.56 µM (≈ 2.63 µg/mL); MIC-fold improvement vs. vancomycin (S. aureus VISA/HIP5827): 4
